Reference: US20150246025A1, “2-PHENYL-5-HETEROCYCLYL-TETRAHYDRO-2H-PYRAN-3-AMINE COMPOUNDS FOR USE IN THE TREATMENT OF DIABETES AND ITS ASSOCIATED DISORDERS” (CADILA HEALTHCARE LIMITED, priority 2012, published 2015)

Tests used:
[1] = Pharmacokinetic study in Wistar rats; assay type: in vivo; conditions: rat, plasma, po; male wistar rats, 2 mg/kg orally, n = 6, Mean ± SD
Method: Pharmacokinetic Study in Wistar Rats
The pharmacokinetic parameters of test compounds were determined in male wistar rats (n=6). Briefly, test compounds were administered orally/iv on a body weight basis to overnight fasted rats. Serial blood samples were collected in microcentrifuge tubes containing EDTA at pre-dose and post-dose after compounds administration, over a period of 168 hrs. Blood was collected at various time points and centrifuged at 4° C. The obtained plasma was frozen, stored at −70° C. and the concentrations of compounds in plasma were determined by the LC-MS/MS (Shimadzu LC 1 OAD, USA), using YMC hydrosphere C18 (2.0×50 mm, 3 μm) column (YMC Inc., USA). The pharmacokinetic parameters, such as Tmax, t1/2, AUC and % F were calculated using a non-compartmental model of WinNonlin software version 5.2.1.

[2] = tested on: C57BL/6J mice; test: In vivo antihyperglycaemic/antidiabetic activity (OGTT), acute single dose 120-min time-course; conditions: Mus musculus, 2 h; male C57BL/6J mice, acute single dose 0,3 mg/kg po, 120-min time-course, n = 6, Mean ± SEM; read-out: In vivo OGTT C57; % Glucose change
Method: Acute single dose 120-min time-course experiments were carried out in male C57BL/6J mice, age 8-12 weeks, bred in-house. Animals were housed in groups of 6 animals per cage, for a week, in order to habituate them to vivarium conditions (25±4° C., 60-65% relative humidity, 12: 12 h light: dark cycle, with lights on at 7.30 am). All the animal experiments were carried out according to the internationally valid guidelines following approval by the ‘Zydus Research Center animal ethical committee’.
The in-vivo glucose lowering properties of the test compounds were evaluated in C57BL/6J (mild hyperglycemic) animal models as described below. Two days prior to the study, the animals were randomized and divided into groups (n=6), based upon their fed glucose levels. On the day of experiment, food was withdrawn from all the cages, water was given ad-libitum and were kept for overnight fasting. Vehicle (normal saline)/test compounds were administered orally, on a body weight basis. Soon after the 0 min. blood collection from each animal, the subsequent blood collections were done at 30, 60 and 120 or upto 240 min., via retro-orbital route, under light ether anesthesia (Diabetes Obesity Metabolism, 7, 307, 2005; Diabetes, 52, 751, 2003).
Blood samples were centrifuged and the separated serum was immediately subjected for the glucose estimation. Serum for insulin estimation was stored at −70° C. until used for the insulin estimation. The glucose estimation was carried out with DPEC-GOD/POD method (Ranbaxy Fine Chemicals Limited, Diagnostic division, India), using Spectramax-190, in 96-microwell plate reader (Molecular devices Corporation, Sunnyvale, Calif.). […] The AUC and BCAUC obtained from graphs were analyzed for one way ANOVA, followed by Dunnett's post test, using Graph Pad prism software.

[3] = biological target: T1, DPP-IV enzyme (Homo sapiens, UniProt P27487); test: In vitro DPP-IV inhibitory activity using enzymatic (fluorescence-based) assay; assay type: biochemical; conditions: soluble human DPP-IV, H-Gly-Pro-AMC 200 μM, pH 7.8, 25° C., 30 min; read-out: % In-vitro DPPIV Inhibition IC50
T1 construct: soluble human proteins (DPP-IV enzyme) produced in a baculovirus expression system; made in house; host or cells: baculovirus expression system (Life Technologies)
T1 sequence (P27487 39-766 limits assumed): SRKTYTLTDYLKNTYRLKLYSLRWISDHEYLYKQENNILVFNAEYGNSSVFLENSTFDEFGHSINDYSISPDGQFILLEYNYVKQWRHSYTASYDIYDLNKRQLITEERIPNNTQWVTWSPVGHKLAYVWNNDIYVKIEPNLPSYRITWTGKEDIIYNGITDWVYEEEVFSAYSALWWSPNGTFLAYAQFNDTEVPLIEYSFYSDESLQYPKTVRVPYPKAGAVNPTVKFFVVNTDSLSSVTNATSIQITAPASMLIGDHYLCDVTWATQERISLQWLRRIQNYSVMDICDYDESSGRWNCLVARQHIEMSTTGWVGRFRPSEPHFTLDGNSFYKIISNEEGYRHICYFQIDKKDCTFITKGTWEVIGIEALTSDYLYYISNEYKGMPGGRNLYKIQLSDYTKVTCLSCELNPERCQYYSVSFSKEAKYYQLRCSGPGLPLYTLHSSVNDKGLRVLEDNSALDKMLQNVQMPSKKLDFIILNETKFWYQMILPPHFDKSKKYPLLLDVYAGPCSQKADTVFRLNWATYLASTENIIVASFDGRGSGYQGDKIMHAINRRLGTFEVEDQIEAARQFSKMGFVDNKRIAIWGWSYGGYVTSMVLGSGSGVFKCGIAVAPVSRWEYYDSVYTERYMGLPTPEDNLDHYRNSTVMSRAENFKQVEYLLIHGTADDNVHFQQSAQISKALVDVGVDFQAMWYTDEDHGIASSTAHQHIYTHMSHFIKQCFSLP
Method: In Vitro DPP-IV Inhibitory Activity Using Enzymatic Assay:
In vitro enzyme (DPP-IV) inhibitory activity was determined using fluorescence-based assay (Anal. Biochem., 200, 352, 1992). The Gly-Pro-AMC was used as a substrate (which is cleaved by the enzymes to release the fluorescent AMC) and soluble human proteins (DPP-IV enzyme) produced in a baculovirus expression system (Life Technologies) was used as the enzyme source. The H-Gly-Pro-AMC (200 μM) was incubated with DPP-IV enzyme in the presence of various concentrations (30 & 100 nM) of test compounds. Reaction was carried out at pH 7.8 (HEPES buffer 25 mM containing 1.0% BSA, 140 mM NaCl, 16 mM MgCl2, 2.8% DMSO) in a total volume of 100 μl at 25° C. for 30 min., in the dark. Reaction was terminated with acetic acid (25 μl of 25% solution). Activity (fluorescence) was measured using Spectra Max fluorometer (Molecular Devices, Sunnyvale Calif.) by exciting at 380 nm and emission at 460 nm.

Compound	AUC [1] [ng·h/mL]	Cmax [1] [ng/mL]	half-life [1] [h]	IC50 [3] [nM]	change in vivo at 0.3 mg/kg [2] [%]
N[C@H]1C[C@@H](N2CC3=C(C2)CS(=O)(=O)C3)CO[C@@H]1c1cc(F)ccc1F [Compound 17, 5-((3R,5S,6R)-5-amino-6-(2,5-difluorophenyl)tetrahydro-2H-pyran-3-yl)-3,4,5,6-tetrahydro-1H-thieno[3,4-c]pyrrole 2,2-dioxide]	1550 ± 114	419 ± 45.5	32.5 ± 5.91		-27.3 ± 3.3
N[C@H]1C[C@@H](N2CC3=C(C2)CN(S(=O)(=O)c2ccc(F)cc2F)C3)CO[C@@H]1c1cc(F)ccc1F [Compound 36, (2R,3S,5R)-2-(2,5-difluorophenyl)-5-(5-((2,4-difluorophenyl)sulfonyl)-5,6-dihydropyrrolo[3,4-c]pyrrol-2(1H,3H,4H)-yl)tetrahydro-2H-pyran-3-amine]				< 10	-22.2 ± 2.5
Cc1ccc(S(=O)(=O)N2CC3=C(CN([C@H]4CO[C@H](c5cc(F)ccc5F)[C@@H](N)C4)C3)C2)cc1 [Compound 37, (2R,3S,5R)-2-(2,5-difluorophenyl)-5-(5-tosyl-5,6-dihydropyrrolo[3,4-c]pyrrol-2(1H,3H,4H)-yl)tetrahydro-2H-pyran-3-amine]				< 30	-25.1 ± 3.2
CC(C)c1ccc(S(=O)(=O)N2CC3=C(CN([C@H]4CO[C@H](c5cc(F)ccc5F)[C@@H](N)C4)C3)C2)cc1 [Compound 39, (2R,3S,5R)-2-(2,5-difluorophenyl)-5-(5-((4-isopropylphenyl)sulfonyl)-5,6-dihydropyrrolo[3,4-c]pyrrol-2(1H,3H,4H)-yl)tetrahydro-2H-pyran-3-amine]				< 10	-25.1 ± 3.6
CC(=O)N1CC2=C(C1)CN([C@H]1CO[C@H](c3cc(F)ccc3F)[C@@H](N)C1)C2 [Compound 41, (2R,3S,5R)-5-(5-acetyl-5,6-dihydropyrrolo[3,4-c]pyrrol-2(1H,3H,4H)-yl)-2-(2,5-difluorophenyl)tetrahydro-2H-pyran-3-amine]				< 100	-6.04 ± 2.6
CC(C)CS(=O)(=O)N1CC2=C(CN([C@H]3CO[C@H](c4cc(F)ccc4F)[C@@H](N)C3)C2)C1 [Compound 42, (2R,3S,5R)-2-(2,5-difluorophenyl)-5-(5-(isobutylsulfonyl)-5,6-dihydropyrrolo[3,4-c]pyrrol-2(1H,3H,4H)-yl)tetrahydro-2H-pyran-3-amine]				< 30	-25.1 ± 2.8
N[C@H]1C[C@@H](N2CC3CS(=O)(=O)CC3C2)CO[C@@H]1c1cc(F)ccc1F (stereo partly drawn) [Compound 43, 5-((3R,5S,6R)-5-amino-6-(2,5-difluorophenyl)tetrahydro-2H-pyran-3-yl)hexahydro-1H-thieno[3,4-c]pyrrole 2,2-dioxide]				< 30	-15.5 ± 3.6
N[C@H]1C[C@@H](N2CC3=C(CNC3)C2)CO[C@@H]1c1cc(F)ccc1F [Compound 44, (2R,3S,5R)-2-(2,5-difluorophenyl)-5-(5,6-dihydropyrrolo[3,4-c]pyrrol-2(1H,3H,4H)-yl)tetrahydro-2H-pyran-3-amine]				< 30	-12.5 ± 1.5
CC(=O)N[C@H]1C[C@@H](N2CC3=C(CN(C(C)=O)C3)C2)CO[C@@H]1c1cc(F)ccc1F [Compound 47, N-((2R,3S,5R)-5-(5-acetyl-5,6-dihydropyrrolo[3,4-c]pyrrol-2(1H,3H,4H)-yl)-2-(2,5-difluorophenyl)tetrahydro-2H-pyran-3-yl)acetamide]				< 100	8.6 ± 5.9
N[C@H]1C[C@@H](N2CC3=C(CN(C=O)C3)C2)CO[C@@H]1c1cc(F)ccc1F [Compound 48, 5-((3R,5S,6R)-5-amino-6-(2,5-difluorophenyl)tetrahydro-2H-pyran-3-yl)-3,4,5,6-tetrahydropyrrolo[3,4-c]pyrrole-2(1H)-carbaldehyde]				< 10	-38.5 ± 1.5
N[C@H]1C[C@@H](N2CC3=C(CN(C(=O)C(F)(F)F)C3)C2)CO[C@@H]1c1cc(F)ccc1F [Compound 50, 1-(5-((3R,5S,6R)-5-amino-6-(2,5-difluorophenyl)tetrahydro-2H-pyran-3-yl)-5,6-dihydropyrrolo[3,4-c]pyrrol-2(1H,3H,4H)-yl)-2,2,2-trifluoroethanone]				< 10	-30 ± 1.4

The next lines start with results.

AUC [1] [ng·h/mL]	Cmax [1] [ng/mL]	half-life [1] [h]	IC50 [3] [nM]	Compound	change in vivo at 0.3 mg/kg [2] [%]
888 ± 129	148 ± 34.2	33.3 ± 2.07	< 30	CS(=O)(=O)N1CC2CN([C@H]3CO[C@H](c4cc(F)ccc4F)[C@@H](N)C3)CC2C1 (stereo partly drawn) [Compound 1, (2R,3S,5R)-2-(2,5-difluorophenyl)-5-(5-(methylsulfonyl)-hexahydro-pyrrolo[3,4-c]pyrrol-2(1H)-yl)tetrahydro-2H-pyran-3-amine]	-22.5 ± 4.5
2970 ± 1070	301 ± 44.3	48.2 ± 11.1	< 100	N[C@H]1C[C@@H](N2CC3COCC3C2)CO[C@@H]1c1cc(F)ccc1F (stereo partly drawn) [Compound 3, (2R,3S,5R)-2-(2,5-difluorophenyl)-5-(tetrahydro-1H-furo[3,4-c]pyrrol-5(3H)-yl)tetrahydro-2H-pyran-3-amine]	-27.6 ± 1.6
4750 ± 647	459 ± 52.2	59.5 ± 6.44	< 10	CS(=O)(=O)N1CC2=C(CN([C@H]3CO[C@H](c4cc(F)ccc4F)[C@@H](N)C3)C2)C1 [Compound 8, (2R,3S,5R)-2-(2,5-difluorophenyl)-5-(5-(methylsulfonyl)-5,6-dihydropyrrolo[3,4-c]pyrrol-2(1H,3H,4H)-yl)tetrahydro-2H-pyran-3-amine]	-49.1 ± 3.6
			< 10	COc1ccc(S(=O)(=O)N2CC3=C(CN([C@H]4CO[C@H](c5cc(F)ccc5F)[C@@H](N)C4)C3)C2)cc1 [Compound 38, (2R,3S,5R)-2-(2,5-difluorophenyl)-5-(5-((4-methoxyphenyl)sulfonyl)-5,6-dihydropyrrolo[3,4-c]pyrrol-2(1H,3H,4H)-yl)tetrahydro-2H-pyran-3-amine]	-22 ± 2.6
			< 30	N[C@H]1C[C@@H](N2CC3=C(C2)CN(S(=O)(=O)c2ccc(C(F)(F)F)cc2)C3)CO[C@@H]1c1cc(F)ccc1F [Compound 40, (2R,3S,5R)-2-(2,5-difluorophenyl)-5-(5-((4-(trifluoromethyl)phenyl)sulfonyl)-5,6-dihydropyrrolo[3,4-c]pyrrol-2(1H,3H,4H)-yl)tetrahydro-2H-pyran-3-amine]	-14 ± 1.5
			< 10	N[C@H]1C[C@@H](N2CC3=C(CN(C(=O)Nc4ccccc4)C3)C2)CO[C@@H]1c1cc(F)ccc1F [Compound 45, 5-((3R,5S,6R)-5-amino-6-(2,5-difluorophenyl)tetrahydro-2H-pyran-3-yl)-N-phenyl-3,4,5,6-tetrahydropyrrolo[3,4-c]pyrrole-2(1H)-carboxamide]	-34.9 ± 4.4
			< 100	CC(=O)N[C@H]1C[C@@H](N2CC3=C(C2)CN(S(C)(=O)=O)C3)CO[C@@H]1c1cc(F)ccc1F [Compound 46, N-((2R,3S,5R)-2-(2,5-difluorophenyl)-5-(5-(methylsulfonyl)-5,6-dihydropyrrolo[3,4-c]pyrrol-2(1H,3H,4H)-yl)tetrahydro-2H-pyran-3-yl)acetamide]	-9.3 ± 3.8
